In paper PMC11240139, “Exploring the antitumor potential of novel quinoline derivatives via tubulin polymerization inhibition in breast cancer; design, synthesis and molecular docking” (RSC Advances, 2024):

Tests used:
Assay type in all cases: cell-based
[1] = system: HL-60(TB) (leukemia); experiment: NCI-60 SRB cytotoxicity screen; conditions: Homo sapiens, single dose 10 μM, read-out: growth inhibition (GI%)
[2] = system: K-562 (leukemia); experiment: NCI-60 SRB cytotoxicity screen; conditions: Homo sapiens; K-652 [sic], single dose 10 μM; read-out: growth inhibition (GI%)
[3] = system: RPMI-8226 (leukemia); experiment: NCI-60 SRB cytotoxicity screen; conditions: Homo sapiens; RPMI-8226, single dose 10 μM; read-out: growth inhibition (GI%)
[4] = system: HOP-62 (non-small cell lung cancer); experiment: NCI-60 SRB cytotoxicity screen; conditions: Homo sapiens; HOP-62, single dose 10 μM; read-out: growth inhibition (GI%)
[5] = system: NCI-H23 (non-small cell lung cancer); experiment: NCI-60 SRB cytotoxicity screen; conditions: Homo sapiens; NCI-H23, single dose 10 μM; read-out: growth inhibition (GI%)
[6] = system: NCI-H522 (non-small cell lung cancer); experiment: NCI-60 SRB cytotoxicity screen; conditions: Homo sapiens; NCI-H522, single dose 10 μM; read-out: growth inhibition (GI%)
[7] = system: COLO 205 (colon cancer); experiment: NCI-60 SRB cytotoxicity screen; conditions: Homo sapiens; COLO 205, single dose 10 μM; read-out: growth inhibition (GI%)
[8] = system: HCC-2998 (colon cancer); experiment: NCI-60 SRB cytotoxicity screen; conditions: Homo sapiens; HCC-2998, single dose 10 μM; read-out: growth inhibition (GI%)
[9] = system: HCT-116 (colon cancer); experiment: NCI-60 SRB cytotoxicity screen; conditions: Homo sapiens; HCT-116, single dose 10 μM; read-out: growth inhibition (GI%)
[10] = system: KM12 (colon cancer); experiment: NCI-60 SRB cytotoxicity screen; conditions: Homo sapiens; KM12, single dose 10 μM; read-out: growth inhibition (GI%)
[11] = system: SF-268 (CNS cancer); experiment: NCI-60 SRB cytotoxicity screen; conditions: Homo sapiens; SF-268, single dose 10 μM; read-out: growth inhibition (GI%)
[12] = system: SNB-19 (CNS cancer); experiment: NCI-60 SRB cytotoxicity screen; conditions: Homo sapiens; SNB-19, single dose 10 μM; read-out: growth inhibition (GI%)
[13] = system: SK-MEL-28 (melanoma); experiment: NCI-60 SRB cytotoxicity screen; conditions: Homo sapiens; SK-MEL-28, single dose 10 μM; read-out: growth inhibition (GI%)
[14] = system: SK-MEL-5 (melanoma); experiment: NCI-60 SRB cytotoxicity screen; conditions: Homo sapiens; SK-MEL-5, single dose 10 μM; read-out: growth inhibition (GI%)
[15] = system: UACC-62 (melanoma); experiment: NCI-60 SRB cytotoxicity screen; conditions: Homo sapiens; UACC-62, single dose 10 μM; read-out: growth inhibition (GI%)
[16] = system: IGROV1 (ovarian cancer); experiment: NCI-60 SRB cytotoxicity screen; conditions: Homo sapiens, IGROV-1; IGROV1, single dose 10 μM; read-out: growth inhibition (GI%)
[17] = system: OVCAR-3 (ovarian cancer); experiment: NCI-60 SRB cytotoxicity screen; conditions: Homo sapiens; OVCAR-3, single dose 10 μM; read-out: growth inhibition (GI%)
[18] = system: RXF 393 (renal cancer); experiment: NCI-60 SRB cytotoxicity screen; conditions: Homo sapiens; RXF 393, single dose 10 μM; read-out: growth inhibition (GI%)
[19] = system: DU-145 (prostate cancer); experiment: NCI-60 SRB cytotoxicity screen; conditions: Homo sapiens; DU-145, single dose 10 μM; read-out: growth inhibition (GI%)
[20] = system: MCF7 (breast cancer); experiment: NCI-60 SRB cytotoxicity screen; conditions: Homo sapiens; MCF7, single dose 10 μM; read-out: growth inhibition (GI%)
[21] = system: HS 578T (breast cancer); experiment: NCI-60 SRB cytotoxicity screen; conditions: Homo sapiens, single dose 10 μM, read-out: growth inhibition (GI%)
[22] = system: BT-549 (breast cancer); experiment: NCI-60 SRB cytotoxicity screen; conditions: Homo sapiens; BT-549, single dose 10 μM; read-out: growth inhibition (GI%)
[23] = system: T-47D (breast cancer); experiment: NCI-60 SRB cytotoxicity screen; conditions: Homo sapiens, T47D, single dose 10 μM, read-out: growth inhibition (GI%)
[24] = system: MDA-MB-468 (breast cancer); experiment: NCI-60 SRB cytotoxicity screen; conditions: Homo sapiens; MDA-MB-468, single dose 10 μM; read-out: growth inhibition (GI%)
In short: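 NCI-60 single-dose (10^−5 M) screen in MDA-MB-468 with SRB protein-stain read-out after 48 h exposure; cells TCA-fixed and absorbance read at 540 nm. Reported as GI%, with compounds meeting NCI activity criteria then run at five doses (0.01–100 μM).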

[25] = system: 60 cancer cell lines (NCI); experiment: NCI-60 single-dose screen, overall verdict over the panel; conditions: single dose 10 μM, whole panel
Method: The cytotoxic activity of the synthesized quinoline derivatives was determined by the national cancer institute (NCI, Bethesda, Maryland, USA) against 60 different cancer cell lines at a single high dose (10^−5 M) in the full NCI 60 cell panel using the sulforhodamine B assay for cell viability evaluation. In summary, 5 × 10^3 cells were in 96-well plate and incubated in complete media for 24 h. Cells were treated with 100 μL of media containing each newly synthesized compound. After drug exposure, cells were fixed by replacing media with 150 μL of 10% TCA and incubated at 4 °C for 1 h. The TCA solution was removed, and the cells were washed 5 times with distilled water. Aliquots of 70 μL SRB solution (0.4% w/v) were added and incubated in a dark place at room temperature for 10 min. The plates were washed 3 times with 1% acetic acid and allowed to air-dry overnight. Then, 150 μL of TRIS (10 mM) was added to dissolve protein-bound SRB stain. The absorbance was measured at 540 nm.% Cytotoxicity = [1 − (AVx/AVNC)] × 100where AVx denotes the average absorbance of the sample well and AVNC denotes the average absorbance of the negative control.

Row | Structure (SMILES) | inhibition at 10 µM [1] [%] | inhibition at 10 µM [2] [%] | inhibition at 10 µM [3] [%] | inhibition at 10 µM [4] [%] | inhibition at 10 µM [5] [%] | inhibition at 10 µM [6] [%] | inhibition at 10 µM [7] [%] | inhibition at 10 µM [8] [%] | inhibition at 10 µM [9] [%] | inhibition at 10 µM [10] [%] | inhibition at 10 µM [11] [%] | inhibition at 10 µM [12] [%] | inhibition at 10 µM [13] [%] | inhibition at 10 µM [14] [%] | inhibition at 10 µM [15] [%] | inhibition at 10 µM [16] [%] | inhibition at 10 µM [17] [%] | inhibition at 10 µM [18] [%] | inhibition at 10 µM [19] [%] | inhibition at 10 µM [20] [%] | other results
1 | CCc1cccc2cc(-c3cc(-c4ccc(Br)cc4)[nH]c(=O)c3C#N)c(Cl)nc12 [Compound 4e, 6-(4-Bromophenyl)-4-(2-chloro-8-ethylquinolin-3-yl)-2-oxo-1,2-dihydropyridine-3-carbonitrile] | < 10 | 33.5 | < 10 | < 10 | < 10 | < 10 | < 10 | < 10 | < 10 | < 10 | < 10 | < 10 | < 10 | 13 | < 10 | < 10 | < 10 | < 10 | < 10 | 20.6 | inhibition at 10 µM [21]: < 10%; inhibition at 10 µM [22]: 27.7%; inhibition at 10 µM [23]: < 10%; inhibition at 10 µM [24]: < 10%; cytotoxic activity over the cell lines (in words) [25]: mild cytotoxic activity
2 | CCc1cccc2cc(-c3cc(-c4ccc(Br)cc4)[nH]c(=S)c3C#N)c(Cl)nc12 [Compound 5e, 6-(4-Bromophenyl)-4-(2-chloro-8-ethylquinolin-3-yl)-2-thioxo-1,2-dihydropyridine-3-carbonitrile] | < 10 | < 10 | 14.7 | < 10 | < 10 | < 10 | < 10 | < 10 | < 10 | < 10 | < 10 | < 10 | < 10 | < 10 | < 10 | < 10 | < 10 | < 10 | < 10 | 19.7 | inhibition at 10 µM [21]: < 10%; inhibition at 10 µM [22]: < 10%; inhibition at 10 µM [23]: 10.4%; inhibition at 10 µM [24]: < 10%; cytotoxic activity over the cell lines (in words) [25]: slight cytotoxic activity
3 | CCc1cccc2cc(C3C=C(c4ccc(OC)cc4)NC(=S)N3)c(Cl)nc12 (stereo not shown) [Compound 6a, 4-(2-Chloro-8-ethylquinolin-3-yl)-6-(4-methoxyphenyl)-3,4-dihydropyrimidine-2(1H)-thione] | < 10 | < 10 | < 10 | < 10 | < 10 | < 10 | < 10 | < 10 | < 10 | < 10 | < 10 | < 10 | < 10 | < 10 | 10.4 | < 10 | < 10 | < 10 | < 10 | < 10 | inhibition at 10 µM [21]: < 10%; inhibition at 10 µM [22]: < 10%; inhibition at 10 µM [23]: < 10%; inhibition at 10 µM [24]: < 10%; cytotoxic activity over the cell lines (in words) [25]: limited cytotoxic activity
4 | CCc1cccc2cc(C3C=C(c4ccc(Br)cc4)NC(=S)N3)c(Cl)nc12 (stereo not shown) [Compound 6e, 6-(4-Bromophenyl)-4-(2-chloro-8-ethylquinolin-3-yl)-3,4-dihydropyrimidine-2(1H)-thione] | < 10 | < 10 | 10.7 | < 10 | < 10 | < 10 | < 10 | < 10 | 10.5 | < 10 | < 10 | < 10 | < 10 | < 10 | < 10 | < 10 | < 10 | < 10 | < 10 | 18.4 | inhibition at 10 µM [21]: < 10%; inhibition at 10 µM [22]: < 10%; inhibition at 10 µM [23]: < 10%; inhibition at 10 µM [24]: < 10%; cytotoxic activity over the cell lines (in words) [25]: limited cytotoxic activity
